Source: patent US7960556B2, “Thiadiazole derivatives for the treatment of neuro-degenerative diseases” (NV reMYND, priority 2006, dated 2011)
pEC50: −log10 of the molar value.

System: α-synuclein cytotoxicity in M17-SYNwt cells
Assay: α-synuclein cytotoxicity assay: LDH leakage from paraquat-treated M17-SYNwt neuroblastoma cells;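 also: paraquat at 32 mM co-added with compound, 40 h exposure, LDH activity released into the culture medium measured, references are DMSO-only cells and paraquat plus DMSO cells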
Details: Homo sapiens, Neuroblastoma cell; for Emax: read-out: % Inhib.
From the text: An α-synuclein expression plasmid was constructed by sub-cloning the NcoI/XhoI fragment from 212T-SYN(WT) (Griffioen et al., Biochem Biophys Acta (2006) 1762(3):312-318) containing the cDNA of human wild type α-synuclein correspondingly into a standard mammalian expression vector pcDNA3.1 (Invitrogen) resulting into the plasmid pcDNA3.1-SYNwt. Plasmids pcDNA3.1 and pcDNA3.1-SYNwt were transfected to human neuroblastoma cells (ATCC No. CRL-2267) and independent clonal lines with the plasmids stably integrated into the genome were selected. […] Over-expression of α-synuclein in M17-SYNwt cell lines was confirmed by Western analysis.
Due to the high levels of α-synuclein M17-SYNwt cells are exquisitely sensitivity to paraquat, a well-known risk factor of synuclein-dependent neuronal degeneration. In degenerated or dead cells lactate dehydrogenase (LDH) is leaked out of the cells into the extracellular environment due to a loss of plasma-membrane integrity. This principle was used to determine cytotoxicity by quantifying the level of leaked LDH into the growth medium.
The detailed method for determining α-synuclein cytotoxicity was as follows: From appropriate precultures of M17 and M17-SYN cells were seeded at 50,000 cells/cm^2 in Optimem Reduced Serum without phenol red (available from InVitrogen, Cat. 31985-047) supplemented with 5% fetal calf serum, 1 mM sodium pyruvate, 1× non-essential amino acids, 500 μg/ml G418 0,5× antibiotic/antimycotic. After 3 hours of incubation at 37° C./5% CO2 paraquat was added to the cells (final concentration of 32 mM), together with the test compound and the cells were further incubated for 40 hours. Subsequently, LDH activity was determined using Promega Cytotox 96 Non-Radioactive cytotoxicity assay, (Cat. G1780) according the instructions of the supplier.
In these experiments, the control group consisted of M17-SYNwt cells treated with DMSO, the untreated paraquat group consisted of M17-SYNwt cells treated with paraquat and DMSO, and the treated paraquat group consisted of M17-SYNwt cells treated with paraquat and the test compound dissolved in DMSO.

Fc1ccc(Cc2nsc(N3CCN(c4cccc(C(F)(F)F)c4)CC3)n2)cc1 [compound 188, 1-(3-trifluoromethylphenyl)-4-[3-(4-fluorobenzyl)-1,2,4-thiadiazol-5-yl]piperazine]
Emax: 96%

CCC(C(=O)NCCN1CCN(c2nc(Cc3ccc(F)cc3)ns2)CC1)c1ccccc1 (centres unmarked) [compound 111, 2-phenyl-N-{2-[4-[3-(4-fluorobenzyl)-1,2,4-thiadiazol-5-yl]piperazin-1-yl]ethyl}butanamide]
pEC50: 5.75
Emax: 79%

Cc1ccc(Cc2nsc(N3CCN(C/C=C/c4ccccc4)CC3)n2)cc1 [compound 91, 1-[3-phenylprop-2-enyl]-4-[3-(4-methylbenzyl)-1,2,4-thiadiazol-5-yl]piperazine]
pEC50: 6.15
Emax: 90%

O=C(NCCN1CCN(c2nc(Cc3ccc(F)cc3)ns2)CC1)c1cc(Cl)cc(Cl)c1 [compound 98, 3,5-dichloro-N-{2-[4-[3-(4-fluorobenzyl)-1,2,4-thiadiazol-5-yl]piperazin-1-yl]ethyl}benzamide]
pEC50: 5.85
Emax: 102%

Cc1ccc(Cc2nsc(N3CCN(S(=O)(=O)c4cccc(C(F)(F)F)c4)C(C)C3)n2)cc1 (centres unmarked) [compound 56, 1-[3-trifluoromethylphenylsulfonyl]-4-[3-(4-methylbenzyl)-1,2,4-thiadiazol-5-yl]-2-methylpiperazine]
Emax: 87%

Cc1ccc(Cc2nsc(N3CCN(S(=O)(=O)c4ccc(Cl)cc4)C(C)C3)n2)cc1 (centres unmarked) [compound 34, 1-[4-chlorophenylsulfonyl]-4-[3-(4-methylbenzyl)-1,2,4-thiadiazol-5-yl]-2-methylpiperazine]
pEC50: 7.18
Emax: 66%

CC1CN(c2nc(Cc3ccc(F)cc3)ns2)CCN1C(=O)CCc1ccccc1 (centres unmarked) [compound 89, 1-(3-phenylpropanoyl)-4-[3-(4-fluorobenzyl)-1,2,4-thiadiazol-5-yl]-2-methylpiperazine]
pEC50: 6.22
Emax: 86%

O=C(NCCN1CCN(c2nc(Cc3ccc(F)cc3)ns2)CC1)c1ccc(F)cc1 [compound 102, 4-fluoro-N-{2-[4-[3-(4-fluorobenzyl)-1,2,4-thiadiazol-5-yl]piperazin-1-yl]ethyl}benzamide]
pEC50: 5.70
Emax: 80%

Cc1ccccc1C(=O)NCCN1CCN(c2nc(Cc3ccc(F)cc3)ns2)CC1 [compound 99, 2-methyl-N-{2-[4-[3-(4-fluorobenzyl)-1,2,4-thiadiazol-5-yl]piperazin-1-yl]ethyl}benzamide]
pEC50: 5.80
Emax: 97%

Cc1ccc(Cc2nsc(N3CCN(S(=O)(=O)c4ccc(Cl)cc4)CC3)n2)cc1 [compound 66, 1-[4-chlorophenylsulfonyl]-4-[3-(4-methylbenzyl)-1,2,4-thiadiazol-5-yl]piperazine]
Emax: 81%

COc1ccc(S(=O)(=O)N2CCN(c3nc(Cc4ccc(Cl)cc4)ns3)CC2C)cc1 (centres unmarked) [compound 51, 1-[4-methoxyphenylsulfonyl]-4-[3-(4-chlorobenzyl)-1,2,4-thiadiazol-5-yl]-2-methylpiperazine]
pEC50: 8.87
Emax: 94%

COc1cccc(Cc2nsc(N3CCN(C(=O)c4ccc(Cl)cc4)C(C)C3)n2)c1 (centres unmarked) [compound 174, 1-(4-chlorobenzoyl)-4-[3-(3-methoxybenzyl)-1,2,4-thiadiazol-5-yl]-2-methylpiperazine]
Emax: 83%

O=C(c1ccccc1F)N1CCN(c2nc(Cc3ccc(Cl)cc3)ns2)CC1 [compound 159, 1-(2-fluorobenzoyl)-4-[3-(4-chlorobenzyl)-1,2,4-thiadiazol-5-yl]piperazine]
pEC50: 5.55
Emax: 48%

COc1ccc(S(=O)(=O)N2CCN(c3nc(Cc4ccccc4F)ns3)CC2)cc1 [compound 194, 1-[4-methoxyphenylsulfonyl]-4-[3-(2-fluoro-benzyl)-1,2,4-thiadiazol-5-yl]piperazine]
pEC50: 8.57
Emax: 102%

Fc1ccc(Cc2nsc(N3CCN(Cc4ccc5c(c4)OCO5)CC3)n2)cc1 [compound 114, 1-(1,3-benzodioxol-5-ylmethyl)-4-[3-(4-fluorobenzyl)-1,2,4-thiadiazol-5-yl]piperazine]
Emax: 86%

O=C(NCCN1CCN(c2nc(Cc3ccccc3)ns2)CC1)c1cccc(F)c1 [compound 106, 3-fluoro-N-{2-[4-[3-benzyl-1,2,4-thiadiazol-5-yl]piperazin-1-yl]ethyl}benzamide]
Emax: 49%

O=C(Nc1ccccc1C(F)(F)F)N1CCN(c2nc(Cc3ccc(F)cc3)ns2)CC1 [compound 17, N-(2-trifluoromethylphenyl)-4-[3-(4-fluorobenzyl)-1,2,4-thiadiazol-5-yl]piperazine-1-carboxamide]
Emax: 46%

CC1CN(c2nc(Cc3ccc(F)cc3)ns2)CCN1C(=O)c1ccc(C(C)(C)C)cc1 (centres unmarked) [compound 128, 1-(4-tert-butylbenzoyl)-4-[3-(4-fluorobenzyl)-1,2,4-thiadiazol-5-yl]-2-methylpiperazine]
pEC50: 6.62
Emax: 95%

COc1ccc(S(=O)(=O)N2CCN(c3nc(Cc4ccc(F)cc4)ns3)CC2)cc1 [compound 74, 1-[4-methoxyphenylsulfonyl]-4-[3-(4-fluorobenzyl)-1,2,4-thiadiazol-5-yl]piperazine]
pEC50: 9.98
Emax: 44%

COc1ccccc1C(=O)N1CCN(c2nc(Cc3ccc(F)cc3)ns2)CC1C (centres unmarked) [compound 133, 1-(2-methoxybenzoyl)-4-[3-(4-fluorobenzyl)-1,2,4-thiadiazol-5-yl]-2-methylpiperazine]
pEC50: 6.54
Emax: 118%

Cc1ccc(Cc2nsc(N3CCN(C(=O)c4cccc(F)c4)CC3)n2)cc1 [compound 162, 1-(3-flurorbenzoyl)-4-[3-(4-methylbenzyl)-1,2,4-thiadiazol-5-yl]piperazine]
pEC50: 5.47
Emax: 101%

Cc1ccc(Cc2nsc(N3CCN(S(=O)(=O)Cc4ccccc4)CC3)n2)cc1 [compound 77, 1-(benzylsulfonyl)-4-[3-(4-methylbenzyl)-1,2,4-thiadiazol-5-yl]piperazine]
Emax: 81%

CCC(C(=O)N1CCN(c2nc(Cc3ccc(F)cc3)ns2)CC1C)c1ccccc1 (centres unmarked) [compound 8, 1-(2-phenylbutanoyl)-4-[3-(4-fluorobenzyl)-1,2,4-thiadiazol-5-yl]-2-methylpiperazine]
pEC50: 5.83
Emax: 71%

Cc1cccc(C)c1NC(=O)N1CCN(c2nc(Cc3ccc(F)cc3)ns2)CC1 [compound 24, N-(2,6-dimethylphenyl)-4-[3-(4-fluorobenzyl)-1,2,4-thiadiazol-5-yl]piperazine-1-carboxamide]
pEC50: 5.92
Emax: 124%

CC1CN(c2nc(Cc3ccc(Cl)cc3)ns2)CCN1C(=O)c1ccccc1F (centres unmarked) [compound 167, 1-(2-fluorobenzoyl)-4-[3-(4-chlorobenzyl)-1,2,4-thiadiazol-5-yl]-2-methylpiperazine]
Emax: 117%

COc1ccc(CC(=O)N2CCN(c3nc(Cc4ccc(F)cc4)ns3)CC2C)cc1 (centres unmarked) [compound 4, 1-(4-methoxyphenylacetyl)-4-[3-(4-fluorobenzyl)-1,2,4-thiadiazol-5-yl]-2-methylpiperazine]
pEC50: 6.09
Emax: 56%

Cc1ccc(Cc2nsc(N3CCN(S(=O)(=O)c4cccc5cccnc45)CC3)n2)cc1 [compound 70, 1-[quinoline-8-sulfonyl]-4-[3-(4-methylbenzyl)-1,2,4-thiadiazol-5-yl]piperazine]
Emax: 44%

CCOc1ccc(NC(=O)N2CCN(c3nc(Cc4ccc(F)cc4)ns3)CC2C)cc1 (centres unmarked) [compound 14, N-(4-ethoxyphenyl)-4-[3-(4-fluorobenzyl)-1,2,4-thiadiazol-5-yl]-2-methylpiperazine-1-carboxamide]
pEC50: 5.76
Emax: 70%

Cc1ccc(Cc2nsc(N3CCN(S(=O)(=O)c4cccc(C(F)(F)F)c4)CC3)n2)cc1 [compound 62, 1-[3-trifluoromethylphenylsulfonyl]-4-[3-(4-methylbenzyl)-1,2,4-thiadiazol-5-yl]piperazine]
Emax: 45%

COc1ccc(S(=O)(=O)N2CCN(c3nc(Cc4cccc(OC)c4)ns3)CC2C)cc1 (centres unmarked) [compound 208, 1-[4-methoxyphenylsulfonyl]-4-[3-(3-methoxybenzyl)-1,2,4-thiadiazol-5-yl]-2-methyl-piperazine]
pEC50: 8.14

CC(=O)Nc1ccc(S(=O)(=O)N2CCN(c3nc(Cc4ccc(C)cc4)ns3)CC2)cc1 [compound 49, 1-[4-acetamidophenylsulfonyl]-4-[3-(4-methylbenzyl)-1,2,4-thiadiazol-5-yl]piperazine]
pEC50: 9.97
Emax: 77%
